From patent US9201014B2, “Development of photostable near-IR cyanine dyes for in vivo imaging” (National University of Singapore, priority 2010, dated 2015)

Tests used:
[1] = Absorbance and fluorescence maximum wavelengths and quantum yields of the CyNA library; type: physicochemical; conditions: for λabs, absorbance maximum wavelength / λem, fluorescence maximum wavelength: CyNA library; for φ, quantum yield: in DMSO, Cardiogreen as standard
Protocol: Since the k values of the different CyNA compounds indicated some dependency on the chemical structure of the amine, the CyNA scaffold was derivatized with a broad range of primary amines (FIGS. 4A-4C). The fluorescence properties of the 80-member CyNA library were measured. The absorption maximum wavelengths ranged from 802 nm to 806 nm, emission maximum wavelengths ranged from 817 nm to 823 nm, and the average quantum yield was approximately 0.10 (Table 2).
All the chemicals (building block amines plus others) and solvents were purchased from Sigma Aldrich, Alfa Aesar, Fluka, MERCK or Acros, and used without further purification. ^1H-NMR and ^13C-NMR spectra were recorded on Bruker Avance 300 NMR and 500 NMR spectrometers, and chemical shifts are expressed in parts per million (ppm). High-resolution mass spectrometry (HRMS) data was recorded on a Micromass VG 7035. Photobleaching experiments were performed using a UVP Blak-Ray® B-100AP high intensity UV lamp (100 W, 365 nm) Spectroscopic and quantum yield data were measured on a SpectraMax M2 spectrophotometer (Molecular Devices), and the data analysis was performed using GraphPrism 5.0. Photobleaching measurements were performed using an Eclipse Ti-U Nikon microscope (filter cube: 750/800) attached to Ti:sappire oscillator that operated in continuous wave mode, and the data was processed using the software NIS-Elements 3.10. In vivo images were taken in an IVIS Spectrum imaging system (Caliper Life Sciences).

[2] = Primary screening of photostability of the CyNA library (time-course fluorescence, 8 h); type: physicochemical; design: F/Fo, fluorescent intensity at 8 hours vs 0 hours: unit: %; conditions: 10 μM in HEPES 100 mM pH 7.4, 2% DMSO
Protocol: As a primary evaluation of photo stability, the decrease in fluorescence intensity of the 80 CyNA compounds was measured (see Table 2). The average decrease in fluorescence intensity after 8 hours of irradiation by a xenon lamp was approximately 18%. A subset of the most photostable compounds (i.e., F/Fo reported in Table 2 was greater than or equal to 95) was examined under stronger irradiation in various buffers.
10-μM CyNA solutions in 100 mM HEPES buffer (pH 7.4) containing 2% DMSO were placed in a 96-well black plate, and fluorescence intensity measurements were recorded every 10 minutes for a total period of 8 hours (excitation-emission: 790-820 nm). A subset of fourteen compounds selected according to their F8h/Fo quotients, quantum yields and maximum relative fluorescence units (RFU) values was further evaluated in a secondary screening

Compound: CCCN1/C(=C/C=C2\CCCC(/C=C/C3=[N+](CCC)c4ccccc4C3(C)C)=C2N(Cc2cc(OC)cc(OC)c2)C(C)=O)C(C)(C)c2ccccc21 [CyNA-262]
- λabs, absorbance maximum wavelength [1]: 803 nm
- λem, fluorescence maximum wavelength [1]: 822 nm
- φ, quantum yield [1]: 0.10
- F/Fo, fluorescent intensity at 8 hours vs 0 hours [2]: 81
- max RFU, maximum relative fluorescence units [2]: 816.5

Compound: CCCN1/C(=C/C=C2\CCCC(/C=C/C3=[N+](CCC)c4ccccc4C3(C)C)=C2N(CCc2ccc(OC)c(OC)c2)C(C)=O)C(C)(C)c2ccccc21 [CyNA-266]
- λabs, absorbance maximum wavelength [1]: 804 nm
- λem, fluorescence maximum wavelength [1]: 823 nm
- φ, quantum yield [1]: 0.08
- F/Fo, fluorescent intensity at 8 hours vs 0 hours [2]: 99
- max RFU, maximum relative fluorescence units [2]: 541.8

Compound: CCCN1/C(=C/C=C2\CCCC(/C=C/C3=[N+](CCC)c4ccccc4C3(C)C)=C2N(CCCOC(C)C)C(C)=O)C(C)(C)c2ccccc21 [CyNA-274]
- λabs, absorbance maximum wavelength [1]: 805 nm
- λem, fluorescence maximum wavelength [1]: 820 nm
- φ, quantum yield [1]: 0.12
- F/Fo, fluorescent intensity at 8 hours vs 0 hours [2]: 99
- max RFU, maximum relative fluorescence units [2]: 1209.5

Compound: CCCN1/C(=C/C=C2\CCCC(/C=C/C3=[N+](CCC)c4ccccc4C3(C)C)=C2N(C(C)=O)C(C)CCc2ccccc2)C(C)(C)c2ccccc21 (stereo not shown) [CyNA-275]
- λabs, absorbance maximum wavelength [1]: 804 nm
- λem, fluorescence maximum wavelength [1]: 817 nm
- φ, quantum yield [1]: 0.14
- F/Fo, fluorescent intensity at 8 hours vs 0 hours [2]: 62
- max RFU, maximum relative fluorescence units [2]: 679.8

Compound: CCCN1/C(=C/C=C2\CCCC(/C=C/C3=[N+](CCC)c4ccccc4C3(C)C)=C2N(CCN2CCOCC2)C(C)=O)C(C)(C)c2ccccc21 [CyNA-282]
- λabs, absorbance maximum wavelength [1]: 805 nm
- λem, fluorescence maximum wavelength [1]: 819 nm
- φ, quantum yield [1]: 0.09
- F/Fo, fluorescent intensity at 8 hours vs 0 hours [2]: 90
- max RFU, maximum relative fluorescence units [2]: 820.1

Compound: CCCN1/C(=C/C=C2\CCCC(/C=C/C3=[N+](CCC)c4ccccc4C3(C)C)=C2N(Cc2ccc(OC)c(OC)c2)C(C)=O)C(C)(C)c2ccccc21 [CyNA-319]
- λabs, absorbance maximum wavelength [1]: 805 nm
- λem, fluorescence maximum wavelength [1]: 820 nm
- φ, quantum yield [1]: 0.06
- F/Fo, fluorescent intensity at 8 hours vs 0 hours [2]: 67
- max RFU, maximum relative fluorescence units [2]: 578.6

Compound: CCCN1/C(=C/C=C2\CCCC(/C=C/C3=[N+](CCC)c4ccccc4C3(C)C)=C2N(Cc2ccccc2Br)C(C)=O)C(C)(C)c2ccccc21 [CyNA-329]
- λabs, absorbance maximum wavelength [1]: 806 nm
- λem, fluorescence maximum wavelength [1]: 821 nm
- φ, quantum yield [1]: 0.10
- F/Fo, fluorescent intensity at 8 hours vs 0 hours [2]: 99
- max RFU, maximum relative fluorescence units [2]: 348.8

Compound: CCCN1/C(=C/C=C2\CCCC(/C=C/C3=[N+](CCC)c4ccccc4C3(C)C)=C2N(CCCc2ccccc2)C(C)=O)C(C)(C)c2ccccc21 [CyNA-335]
- λabs, absorbance maximum wavelength [1]: 804 nm
- λem, fluorescence maximum wavelength [1]: 821 nm
- φ, quantum yield [1]: 0.06
- F/Fo, fluorescent intensity at 8 hours vs 0 hours [2]: 50
- max RFU, maximum relative fluorescence units [2]: 167.9

Compound: CCCN1/C(=C/C=C2\CCCC(/C=C/C3=[N+](CCC)c4ccccc4C3(C)C)=C2N(Cc2c(OC)cc(OC)cc2OC)C(C)=O)C(C)(C)c2ccccc21 [CyNA-336]
- λabs, absorbance maximum wavelength [1]: 804 nm
- λem, fluorescence maximum wavelength [1]: 820 nm
- φ, quantum yield [1]: 0.11
- F/Fo, fluorescent intensity at 8 hours vs 0 hours [2]: 85
- max RFU, maximum relative fluorescence units [2]: 827.7

Compound: CCCN1/C(=C/C=C2\CCCC(/C=C/C3=[N+](CCC)c4ccccc4C3(C)C)=C2N(Cc2cccc(Br)c2)C(C)=O)C(C)(C)c2ccccc21 [CyNA-341]
- λabs, absorbance maximum wavelength [1]: 805 nm
- λem, fluorescence maximum wavelength [1]: 822 nm
- φ, quantum yield [1]: 0.10
- F/Fo, fluorescent intensity at 8 hours vs 0 hours [2]: 100
- max RFU, maximum relative fluorescence units [2]: 259.2

Compound: CCCN1/C(=C/C=C2\CCCC(/C=C/C3=[N+](CCC)c4ccccc4C3(C)C)=C2N(CCc2ccc(O)cc2)C(C)=O)C(C)(C)c2ccccc21 [CyNA-346]
- λabs, absorbance maximum wavelength [1]: 804 nm
- λem, fluorescence maximum wavelength [1]: 822 nm
- φ, quantum yield [1]: 0.07
- F/Fo, fluorescent intensity at 8 hours vs 0 hours [2]: 69
- max RFU, maximum relative fluorescence units [2]: 434.2

Compound: CCCN1/C(=C/C=C2\CCCC(/C=C/C3=[N+](CCC)c4ccccc4C3(C)C)=C2N(Cc2cccc(F)c2F)C(C)=O)C(C)(C)c2ccccc21 [CyNA-351]
- λabs, absorbance maximum wavelength [1]: 805 nm
- λem, fluorescence maximum wavelength [1]: 818 nm
- φ, quantum yield [1]: 0.10
- F/Fo, fluorescent intensity at 8 hours vs 0 hours [2]: 52
- max RFU, maximum relative fluorescence units [2]: 555.4

Compound: CCCN1/C(=C/C=C2\CCCC(/C=C/C3=[N+](CCC)c4ccccc4C3(C)C)=C2N(Cc2cc(OC)c(OC)c(OC)c2)C(C)=O)C(C)(C)c2ccccc21 [CyNA-356]
- λabs, absorbance maximum wavelength [1]: 804 nm
- λem, fluorescence maximum wavelength [1]: 820 nm
- φ, quantum yield [1]: 0.12
- F/Fo, fluorescent intensity at 8 hours vs 0 hours [2]: 83
- max RFU, maximum relative fluorescence units [2]: 892.3

Compound: CCCN1/C(=C/C=C2\CCCC(/C=C/C3=[N+](CCC)c4ccccc4C3(C)C)=C2N(Cc2ccc(OC)cc2OC)C(C)=O)C(C)(C)c2ccccc21 [CyNA-358]
- λabs, absorbance maximum wavelength [1]: 805 nm
- λem, fluorescence maximum wavelength [1]: 819 nm
- φ, quantum yield [1]: 0.14
- F/Fo, fluorescent intensity at 8 hours vs 0 hours [2]: 100
- max RFU, maximum relative fluorescence units [2]: 487.4

Compound: CCCN1/C(=C/C=C2\CCCC(/C=C/C3=[N+](CCC)c4ccccc4C3(C)C)=C2N(CCc2ccc([N+](=O)[O-])cc2)C(C)=O)C(C)(C)c2ccccc21 [CyNA-359]
- λabs, absorbance maximum wavelength [1]: 805 nm
- λem, fluorescence maximum wavelength [1]: 821 nm
- φ, quantum yield [1]: 0.11
- F/Fo, fluorescent intensity at 8 hours vs 0 hours [2]: 85
- max RFU, maximum relative fluorescence units [2]: 527.6

Compound: CCCN1/C(=C/C=C2\CCCC(/C=C/C3=[N+](CCC)c4ccccc4C3(C)C)=C2N(Cc2ccccc2Cl)C(C)=O)C(C)(C)c2ccccc21 [CyNA-364]
- λabs, absorbance maximum wavelength [1]: 804 nm
- λem, fluorescence maximum wavelength [1]: 821 nm
- φ, quantum yield [1]: 0.05
- F/Fo, fluorescent intensity at 8 hours vs 0 hours [2]: 98
- max RFU, maximum relative fluorescence units [2]: 264.8

Compound: CCCCN(C(C)=O)C1=C(/C=C/C2=[N+](CCC)c3ccccc3C2(C)C)CCC/C1=C\C=C1\N(CCC)c2ccccc2C1(C)C [CyNA-373]
- λabs, absorbance maximum wavelength [1]: 805 nm
- λem, fluorescence maximum wavelength [1]: 820 nm
- φ, quantum yield [1]: 0.07
- F/Fo, fluorescent intensity at 8 hours vs 0 hours [2]: 76
- max RFU, maximum relative fluorescence units [2]: 567.2

Compound: CCCN1/C(=C/C=C2\CCCC(/C=C/C3=[N+](CCC)c4ccccc4C3(C)C)=C2N(Cc2ccccc2F)C(C)=O)C(C)(C)c2ccccc21 [CyNA-375]
- λabs, absorbance maximum wavelength [1]: 804 nm
- λem, fluorescence maximum wavelength [1]: 821 nm
- φ, quantum yield [1]: 0.07
- F/Fo, fluorescent intensity at 8 hours vs 0 hours [2]: 98
- max RFU, maximum relative fluorescence units [2]: 533.7

Compound: CCCN1/C(=C/C=C2\CCCC(/C=C/C3=[N+](CCC)c4ccccc4C3(C)C)=C2N(CC2CCCCC2)C(C)=O)C(C)(C)c2ccccc21 [CyNA-382]
- λabs, absorbance maximum wavelength [1]: 804 nm
- λem, fluorescence maximum wavelength [1]: 820 nm
- φ, quantum yield [1]: 0.08
- F/Fo, fluorescent intensity at 8 hours vs 0 hours [2]: 85
- max RFU, maximum relative fluorescence units [2]: 294.6

Compound: CCCN1/C(=C/C=C2\CCCC(/C=C/C3=[N+](CCC)c4ccccc4C3(C)C)=C2N(Cc2cccc(OC)c2)C(C)=O)C(C)(C)c2ccccc21 [CyNA-387]
- λabs, absorbance maximum wavelength [1]: 804 nm
- λem, fluorescence maximum wavelength [1]: 820 nm
- φ, quantum yield [1]: 0.07
- F/Fo, fluorescent intensity at 8 hours vs 0 hours [2]: 75
- max RFU, maximum relative fluorescence units [2]: 739.9
